In US10881110B2, “Herbicidal compositions comprising isoxazolo[5,4-b]pyridines” (BASF SE, priority 2014, dated 2021):
Read-outs that look alike come from different tables or passages of the source.

How the values were obtained:
Experiment in all cases: greenhouse post-emergence herbicidal test
GERPU = type: in vivo, Geranium pusillum; settings: application rate a.i.: I.1 31.25 g/ha
Description: The culture containers used were plastic pots containing medium loamy sand with approximately 4.6% of humus and 69.9% sand as substrate. The seeds of the test plants were sown separately for each species.
For the post-emergence treatment, the test plants were grown to a plant height of from 1 to 15 cm, depending on the plant habit, and only then treated with the active compounds which had been suspended or emulsified in water. To this end, the test plants were either sown directly, and grown in the same containers, or they were first grown separately as seedlings and transplanted into the test containers a few days prior to treatment.
Depending on the species, the plants were kept at 10-25° C. and 20-35° C., respectively.
The test period extended over 1 to 3 weeks. During this time, the plants were tended and their response to the individual treatments was evaluated 20 days after treatment except mentioned otherwise.
Evaluation was carried out using a scale from 0 to 100. 100 means no emergence of the plants, or complete destruction of at least the above-ground parts, and 0 means no damage or normal course of growth.
The respective stated components A and B, and, if appropriate, C, were formulated as a 10% by weight strength emulsion concentrate and, with addition of the amount of solvent system, introduced into the spray liquor used for applying the active compound. In the examples, the solvent used was water.
In the examples below, using the method of S. R. Colby (1967) “Calculating synergistic and antagonistic responses of herbicide combinations”, Weeds 15, p. 22 ff., the value E, which is expected if the activity of the individual active compounds is only additive, was calculated. E=X+Y−(X·Y/100)

KCHSC = type: in vivo, Kochia scoparia; parameters: key to herbicidal activity against KCHSC found: rating on a scale from 0 to 100; settings: post emergence
Summary of the method: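 Herbicidal activity scored on a 0 (no damage) to 100 (plants destroyed) scale, usually 20 days after water-based spraying of 1–15 cm plants grown in loamy sand at 10-25 °C or 20-35 °C depending on species. Components were applied from 10% emulsion concentrates; Colby's E=X+Y−(X·Y/100) gives the additive expectation.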

MATCH = type: in vivo, Matricaria recutita; parameters: key to herbicidal activity against MATCH found: rating on a scale from 0 to 100; settings: post emergence
Summary of the method: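 Post-emergence greenhouse test: plants in loamy sand, sprayed at 1–15 cm height with aqueous spray liquor from 10% emulsion concentrates, kept at 10-25 °C or 20-35 °C by species. Damage scored 0–100 (100 = complete destruction), usually 20 days after treatment. Expected additive effect E from Colby: E=X+Y−(X·Y/100).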

[1] = 6 days after treatment, g/ha a.i.: I.1 31.25, naptalam 100, mixture 31.25+100
[2] = I.1 62.5 g/ha, B.167 62.5 g/ha a.i.

## O=C(O)c1cc(C2CC2)nc2onc(C3CC3)c12 [I.1]
GERPU; B.139 (pyroxasulfone) 12.5 g/ha, alone or as mixture (composition 1.139)
  herbicidal activity against GERPU, found: 80
GERPU; B.139 (pyroxasulfone) 25 g/ha, alone or as mixture (composition 1.139)
  herbicidal activity against GERPU, found: 80
GERPU; B.87 (carfentrazone-ethyl) 1.75 g/ha, alone or as mixture (composition 1.87)
  herbicidal activity against GERPU, found: 80
KCHSC; Bassia scoparia, post-emergence, 480 h, I.1 alone 31.25 g/ha a.i., read-out: herbicidal activity against KCHSC found
  pest or weed control at 31.25 g/ha: 70%
KCHSC; Bassia scoparia, post-emergence, 480 h, I.1 alone 62.5 g/ha a.i., read-out: herbicidal activity against KCHSC found
  pest or weed control at 62.5 g/ha: 85%
KCHSC; Bassia scoparia, post-emergence, 480 h, 31.25 g/ha a.i., read-out: herbicidal activity against KCHSC found
  pest or weed control at 31.25 g/ha: 75%
KCHSC; Bassia scoparia, post-emergence, 480 h, I.1 125 g/ha a.i., read-out: herbicidal activity against KCHSC found
  pest or weed control at 125 g/ha: 95%
KCHSC; Bassia scoparia, post-emergence, 480 h, single active, 15.625 g/ha a.i., read-out: herbicidal activity against KCHSC found
  pest or weed control at 15.625 g/ha: 0%
KCHSC; Bassia scoparia, post-emergence, 480 h, single active, 31.25 g/ha a.i., read-out: herbicidal activity against KCHSC found
  pest or weed control at 31.25 g/ha: 30%
KCHSC; Bassia scoparia, post-emergence, 480 h, single active, 62.5 g/ha a.i., read-out: herbicidal activity against KCHSC found
  pest or weed control at 62.5 g/ha: 70%
KCHSC; 6 days after treatment, g/ha a.i.: I.1 31.25, B.96 35, mixture 31.25+35
  herbicidal activity against KCHSC found: 10
KCHSC; 6 days after treatment, g/ha a.i.: I.1 31.25, B.96 70, mixture 31.25+70
  herbicidal activity against KCHSC found: 10
KCHSC; 6 days after treatment, g/ha a.i.: I.1 31.25, B.96 140, mixture 31.25+140
  herbicidal activity against KCHSC found: 10
KCHSC; [1]
  herbicidal activity against KCHSC found: 10
KCHSC; 6 days after treatment, g/ha a.i.: I.1 31.25, naptalam 200, mixture 31.25+200
  herbicidal activity against KCHSC found: 10
KCHSC; 6 days after treatment, g/ha a.i.: I.1 62.5, B.96 35, mixture 62.5+35
  herbicidal activity against KCHSC found: 90
KCHSC; 6 days after treatment, g/ha a.i.: I.1 62.5, B.96 70, mixture 62.5+70
  herbicidal activity against KCHSC found: 90
KCHSC; I.1 15.62 g/ha, B.88 1 g/ha a.i.
  herbicidal activity against KCHSC found: 45
KCHSC; I.1 31.25 g/ha, B.103 7.5 g/ha a.i.
  herbicidal activity against KCHSC found: 30
KCHSC; I.1 31.25 g/ha, B.103 15 g/ha a.i.
  herbicidal activity against KCHSC found: 30
KCHSC; I.1 31.25 g/ha, B.167 62.5 g/ha a.i.
  herbicidal activity against KCHSC found: 30
KCHSC; I.1 31.25 g/ha, B.88 1 g/ha a.i.
  herbicidal activity against KCHSC found: 55
KCHSC; I.1 62.5 g/ha, B.103 7.5 g/ha a.i.
  herbicidal activity against KCHSC found: 70
KCHSC; I.1 62.5 g/ha, B.103 15 g/ha a.i.
  herbicidal activity against KCHSC found: 70
KCHSC; [2]
  herbicidal activity against KCHSC found: 70
KCHSC; I.1 62.5 g/ha, B.88 1 g/ha a.i.
  herbicidal activity against KCHSC found: 80
KCHSC; applied alone at 31.25 g/ha a.i.
  herbicidal activity against KCHSC found: 80
KCHSC; applied alone at 125 g/ha a.i.
  herbicidal activity against KCHSC found: 95
KCHSC; g/ha a.i.: I.1 31.25, B.24 1, mixture 31.25+1
  herbicidal activity against KCHSC found: 40
KCHSC; g/ha a.i.: I.1 31.25, B.24 2, mixture 31.25+2
  herbicidal activity against KCHSC found: 40
MATCH; Matricaria chamomilla, post-emergence, 480 h, I.1 alone 31.25 g/ha a.i., read-out: herbicidal activity against MATCH found
  pest or weed control at 31.25 g/ha: 0%
MATCH; Matricaria chamomilla, post-emergence, 480 h, I.1 alone 125 g/ha a.i., read-out: herbicidal activity against MATCH found
  pest or weed control at 125 g/ha: 0%
MATCH; Matricaria chamomilla, post-emergence, 480 h, 62.5 g/ha a.i., read-out: herbicidal activity against MATCH found
  pest or weed control at 62.5 g/ha: 50%
MATCH; Matricaria chamomilla, post-emergence, 480 h, I.1 31.25 g/ha a.i., read-out: herbicidal activity against MATCH found
  pest or weed control at 31.25 g/ha: 20%
MATCH; Matricaria chamomilla, post-emergence, 480 h, I.1 62.5 g/ha a.i., read-out: herbicidal activity against MATCH found
  pest or weed control at 62.5 g/ha: 30%
MATCH; Matricaria chamomilla, post-emergence, 480 h, single active, 31.25 g/ha a.i., read-out: herbicidal activity against MATCH found
  pest or weed control at 31.25 g/ha: 15%
MATCH; Matricaria chamomilla, post-emergence, 480 h, single active, 62.5 g/ha a.i., read-out: herbicidal activity against MATCH found
  pest or weed control at 62.5 g/ha: 60%
MATCH; 6 days after treatment, g/ha a.i.: I.1 31.25, naptalam 50, mixture 31.25+50
  herbicidal activity against MATCH found: 0
MATCH; [1]
  herbicidal activity against MATCH found: 0
MATCH; 6 days after treatment, g/ha a.i.: I.1 62.5, naptalam 50, mixture 62.5+50
  herbicidal activity against MATCH found: 10
MATCH; I.1 15.62 g/ha, B.95 1 g/ha a.i.
  herbicidal activity against MATCH found: 10
MATCH; I.1 31.25 g/ha, B.95 1 g/ha a.i.
  herbicidal activity against MATCH found: 10
MATCH; I.1 31.25 g/ha, B.95 2 g/ha a.i.
  herbicidal activity against MATCH found: 10
MATCH; [2]
  herbicidal activity against MATCH found: 0
MATCH; I.1 62.5 g/ha, B.167 125 g/ha a.i.
  herbicidal activity against MATCH found: 0
MATCH; I.1 62.5 g/ha, B.95 2 g/ha a.i.
  herbicidal activity against MATCH found: 65
MATCH; a.i. g/ha: I.1 20.8, B.192 62.5, 20 days after treatment
  herbicidal activity against MATCH found: 60%
MATCH; a.i. g/ha: I.1 20.8, B.79 25, 20 days after treatment
  herbicidal activity against MATCH found: 60%
MATCH; a.i. g/ha: I.1 31.25, B.67 125, 20 days after treatment
  herbicidal activity against MATCH found: 30%
MATCH; a.i. g/ha: I.1 31.25, B.67 125, 20 days after treatment, sub-table r36-r43
  herbicidal activity against MATCH found: 30%
MATCH; a.i. g/ha: I.1 31.25, B.69 25, 20 days after treatment
  herbicidal activity against MATCH found: 30%
